In patent publication US20110318397A1, “METHOD FOR PREPARING HIGH PURITY GINSENOSIDE RD USING LACTOBACILLUS CASEI AND COSMETIC COMPOSITION FOR ANTI-WRINKLE COMPRISING THE HIGH PURITY GINSENOSIDE RD” (priority 2010, published 2011):
Like-named read-outs stand apart in the source and are kept apart here.

Columns and labels:
[1] = test system: Human fibroblasts (WI-38); experiment: Collagen synthesis, procollagen type-I C-peptide kit; format: cell-based; conditions: WI-38 fibroblasts, 24 h; for collagen production as compared to the control (sample-untreated cells): 1×10^−4% (w/v) or lower
Method: Human fibroblasts (WI-38) that had been stored at −80° C. or in liquid nitrogen were used. The cells were uniformly placed on a 96-well plate, with 2.0×10^4 cells/well.
After culturing in MEM (FBS 5%) for 24 hours, the medium was replaced with a fresh serum-free medium and the cells were treated with gradually diluted sample. […] After treatment with the sample, the cells were further cultured for 24 hours on a 96-well plate. Then, the quantity of collagen was measured using a collagen measurement kit (Procollagen type-I C-peptide MK101, Takara).

[2] = test system: human fibroblasts
Method: MTT [3-(4,5-dimethylthiazol-2-yl)-2,5-diphenyltetrazolium bromide, Sigma M5655] assay was carried out to test the effect of the sample on proliferation of human fibroblasts.
The fibroblasts that had been stored at −80° C. or in liquid nitrogen were used. The cells were uniformly placed on a 96-well plate, with 2.0×10^4 cells/well. After culturing in MEM (FBS 5%) for 24 hours, the medium was replaced with a fresh serum-free medium and the cells were treated with gradually diluted sample. The samples were ginsenoside Rd and retinol. After treatment with the sample, the cells were further cultured for 24 hours on a 96-well plate. Subsequently, after adding 10 μL of MTT solution (5 mg/mL) to each well, the cells were cultured for 4 hours. After removing the medium and adding 100 μL of dimethyl sulfoxide to each well followed by shaking for 10 minutes, absorbance was measured at 540 nm using an ELISA reader.

Compound | collagen production as compared to the control (sample-untreated cells) [1] | maximum collagen production ([1]; at 1×10^−2 (w/v) or lower) [%] | cell viability ([2]; human, 24 h) [%] | cell viability [2] [%] | cytotoxicity [2]
CC(C)=CCC[C@](C)(O)[C@H]1CC[C@]2(C)[C@@H]1[C@H](O)C[C@@H]1[C@@]3(C)CC[C@H](O)C(C)(C)[C@@H]3[C@@H](O[C@@H]3O[C@H](CO)[C@@H](O)[C@H](O)[C@H]3O[C@@H]3O[C@@H](C)[C@H](O)[C@@H](O)[C@H]3O)C[C@]12C [Rg2, ginsenoside Rg2] | remarkably decreased collagen production | – | – | – | –
CC1=C(/C=C/C(C)=C/C=C/C(C)=C/CO)C(C)(C)CCC1 [Retinol, retinol, reference compound] | – | 30 | 100 | – | –
CC(C)=CCC[C@](C)(O[C@@H]1O[C@H](CO)[C@@H](O)[C@H](O)[C@H]1O)[C@H]1CC[C@]2(C)[C@@H]1[C@H](O)C[C@@H]1[C@@]3(C)CC[C@H](O[C@@H]4O[C@H](CO)[C@@H](O)[C@H](O)[C@H]4O[C@@H]4O[C@H](CO)[C@@H](O)[C@H](O)[C@H]4O)C(C)(C)[C@@H]3CC[C@]12C [ginsenoside Rd] | slightly decreased collagen production | – | – | 100 | no cytotoxicity
